In patent US11136297B2, “Compositions and methods for treating cancer” (THE REGENTS OF THE UNIVERSITY OF CALIFORNIA, priority 2016, dated 2021):

Legend:
[1] = target: T1, WT H-Ras (Homo sapiens, UniProt P01112); assay: BioLayer interferometry (BLI) reversible binding
T1 construct: made in house; host or cells: Escherichia coli BL21(DE3)

[2] = target: H-Ras(M72C) GDP (Homo sapiens, UniProt P01112, M72C); assay: Competition labeling experiments (Compound 3 vs Compound 4); assay type: binding; set-up: Labeling studies were conducted using the 1-166 H-Ras(M72C) construct containing all endogenous cysteines; His6; made in house; host or cells: Escherichia coli BL21(DE3); details: 20 μM Compound 3, varying Compound 4 (0-180), 4 μM H-Ras(M72C) GDP
Protocol: Competition Labeling Experiments.
[…] were made in Gel Filtration buffer (20 mM HEPES (pH 7.5), 150 mM NaCl) with no added reductant at room temperature. The final concentrations of each reagent were as follows: […], 1 mM MgCl2, […], X mM Compound 4, and a total DMSO concentration of 4% by volume. Compound 4 was varied from OX (0 mM), 1× (20 mM), 3× (60 mM), and 9× (180 mM) respectively. Adding the desired volume of Gel Filtration Buffer, MgCl2, DMSO, and 10 mM compound stocks of Compounds 3 and 4 was done first and mixed thoroughly before protein was added. Reactions were started by the addition and gentle mixing by pipette of concentrated Ras stocks diluted into the master reaction down to […]. Each reaction was set in triplicate and allowed to react at room temperature in the dark (either covered in aluminum foil or in a bench drawer) until the desired time point was reached. At each time point, […] aliquots of each 200 mL master reaction was sampled and quenched by the addition of […] of 2% formic acid (also made in Gel Filtration Buffer). This 25 mL quenched sample was then analyzed by LC/MS and the remaining master reaction was allowed to continue reacting after gentle mixing by pipette. The percent modification was analyzed by electrospray mass spectrometry using a Waters Acquity UPLC/ESI-TQD with a 2.1×50 mm Acquity UPLC BEH300 C4 column.

[3] = target: T2, H-Ras(M72C) GppNHp binding to Raf-1-RBD (Homo sapiens, UniProt P01112, M72C); assay: Raf-1-RBD pull-down of labeled H-Ras(M72C) GppNHp; details: H-Ras(M72C) GppNHp pre-labeled with compound; various concentrations of H-Ras
T2 construct: and H-Ras (residues 1-166) were transformed into Escherichia coli; His6; made in house; host or cells: Escherichia coli BL21(DE3)
Protocol: FIGS. 29A-29D. […] FIG. 29D: Reconstruction of Ras cycle is achieved by inducing nucleotide exchange of 100 nM Ras by various concentrations of SOS^cat for either 1 or 2 hours and subsequent pull-down by Raf-1-RBD.
FIGS. 33A-33D. […] In FIG. 33B) through FIG. 33D), normalized pull-down signals are shown below the blot. S. E. M for each signal, number of replicates, and […] for each comparative Standard T-Test are summarized herein (see Tables 33B, 33C, and 33D). […] Comparative statistics were done for normalized pull-down signals between protein constructs of the same condition (i.e. in FIG. 33B) and FIG. 33C), column 1 for unlabeled and 1 for labeled protein, 2 for unlabeled and 2 for labeled, and so on were statistically compared, and in FIG. 33D) only the +SOS^cat and +GppNHp lanes were compared across protein constructs). FIG. 33A) Cartoon representation of pull down protocol. […] Reported values are quantified pull-down signals normalized to input. FIG. 33B) Cartoon representation of pull down protocol. […] FIG. 33C) Cartoon representation of pull down protocol. […] FIG. 33D) Cartoon representation of pull down protocol. Ras activation is achieved by catalyzing nucleotide exchange by SOS^cat and indirectly reading out activated Ras by subsequent pull down by Raf-1-RBD.

[4] = target: T2, H-Ras(M72C) GppNHp binding to Raf-1-RBD; assay: Ras GppNHp in vitro pull down by His6-MBP-Raf-1-RBD; details: H-Ras(M72C) pre-labeled with compound
Protocol: Ras GppNHp In Vitro Pull Down Assay by His6-MBP-Raf-1-RBD. For each His6-MBP-Raf-1-RBD in vitro pull down the total volume was 500 μL. Each reaction had the following final composition: Either 20, 80, 200, 400, or 800 nM Ras GppNHp (from 0.2 mg/mL Ras stock), 75 nM BSA (2.5 μg, 5 μL of 0.5 mg/mL BSA stock), 200 nM of His6-MBP-Raf-1-RBD (5.3 μg, 1.2 μL of 4.38 mg/mL stock of His6-MBP-Raf-1-RBDwitt), and Raf Pull Down Buffer to volume (25 mM Tris (pH 7.2), 150 mM NaCl, 5 mM MgCl2, 1% NP-40, 5% glycerol, 20 mM imidazole). Samples were then mixed by gentle rotation at 4° C. for 30 min. While equilibrating, add 50 μL Ni-NTA slurry (Qiagen) to a cellulose acetate spin cup and spin at 5,000 rpm on a tabletop centrifuge for 30 seconds. Wash the beads with 400 μL of Raf Pull Down Buffer to wash away bead storage buffer. Before adding each pull down solution, take 10 μL and save as a loading control sample. To each spin cup filled with washed Ni-NTA beads, add the remaining equilibrated pull down solution, seal the spin cup with parafilm and let rotate at 4° C. for 30 more minutes. After mixing, centrifuge the sample for 30 seconds at 5,000 rpm. Toss flow through. Wash the beads X 5 with 400 μL of Raf Pull Down Buffer. After last wash, centrifuge one last time to remove any excess buffer stuck to the beads. […] Blots were read out using LICOR compatible secondary antibodies. […]

[5] = target: T3, H-Ras(M72C) bound to either GDP or GppNHp (Homo sapiens, UniProt P01112, M72C); assay: Electrophile labeling experiments (percent modification by whole protein LC/MS); assay type: binding; details: 4 μM H-Ras(M72C) GDP or GppNHp, 100 μM electrophile, 24 hours
T3 construct: Labeling studies were conducted using the 1-166 H-Ras(M72C) construct containing all endogenous cysteines; His6; made in house; host or cells: Escherichia coli BL21(DE3)
Protocol: Electrophile Labeling Experiments.
Each reaction was analyzed in a 96 well plate format for analysis by LC/MS. Total reaction volumes were 25 μL for single time point labeling experiments and 200 uL for full 24-hour time courses. 25 μL reactions were made in the wells of a V-bottom 96 well plate and 200 uL reactions were made in 1.25 mL eppendorf tubes. All labeling reactions were conducted in Gel Filtration Buffer (20 mM HEPES (pH 7.5), 150 mM NaCl) with no added reductant at room temperature. […] Electrophile stocks were made in DMSO at 10 mM, aliquoted, and frozen. Labeling reactions were started by the addition of the desired volume of 10 mM electrophile stock and mixed thoroughly by pipette. General screening of new electrophiles was done at 100 μM electrophile in triplicate and sampled as a single time point after 24 hours of incubation. For Compound 3, labeling time courses were conducted at 20 μM compound with sampling done every 2 hours for the first 10 hours of incubation and continued after overnight incubation until the protein was fully modified. Reactions were allowed to sit at room temperature in the dark (either covered in aluminum foil or in a bench drawer) until the desired time point was reached. For 24-hour single point labeling experiments, the reaction was directly sampled from the 96 well plate and analyzed by LC/MS. For experiments with multiple time points, 22.5 μL aliquots of the 200 μL master reaction were sampled and quenched by the addition of 2.5 μL of 2% formic acid (also made in Gel Filtration Buffer). This 25 μL quenched sample was then analyzed by LC/MS and the remaining master reaction was allowed to continue reacting after gentle mixing by pipette. The percent modification was analyzed by electrospray mass spectrometry using a Waters Acquity UPLC/ESI-TQD with a 2.1×50 mm Acquity UPLC BEH300 C4 column.

| reversible binding by BLI [1] | rate of Compound 3 labeling (% labeled per hour) in presence of Compound 4 [2] | rate of Compound 3 labeling (% labeled per hour) in presence of Compound 4 ([2]; listed as compound 4) | Raf-1-RBD binding [3] | Raf-1-RBD binding (pull down), labeled vs unlabeled H-Ras(M72C) [4] | Percent modification (labeling of Cys 72) [5] | Compound |
| --- | --- | --- | --- | --- | --- | --- |
| unable to detect measurable binding | dose dependent decrease | dose-dependent decrease | – | – | – | CCC(=O)Nc1cc(Cl)cc(NC(=O)c2cnn(-c3ccc(OC)cc3)c2C(F)(F)F)c1 [Compound 4, N-(3-chloro-5-propionamidophenyl)-1-(4-methoxyphenyl)-5-(trifluoromethyl)-1H-pyrazole-4-carboxamide] |
| – | – | – | do not inhibit Raf RBD binding | did not inhibit Raf-1-RBD binding | significant increase | C=CC(=O)Nc1cccc(NC(=O)c2cnn(-c3ccc(OC)cc3)c2C(F)(F)F)c1 [Compound 2, N-(3-acrylamidophenyl)-1-(4-methoxyphenyl)-5-(trifluoromethyl)-1H-pyrazole-4-carboxamide] |
